# Laboratory results reported in PMC7507803 (ACS Pharmacology & Translational Science, 2020).
# Residues, ends and D or L forms follow the SMILES beside them. *: point of attachment. AMC = Cc1cc(=O)oc2cc(N*)ccc12; Boc = CC(C)(C)OC(=O)*
# Experiments:
# [1] = system: prostasin; settings: cited from earlier work
# [2] = molecular target: Recombinant Human TMPRSS2 (Homo sapiens, UniProt O15393); experiment: TMPRSS2 fluorogenic biochemical assay
# [3] = cited from earlier work
# [4] = system: TMPRSS2 (aa 148–492); settings: TMPRSS2 biochemical screen; cited from earlier work
# [5] = system: SARS-CoV-2-S-mediated pseudotyped particle entry; settings: cited from earlier work
# [6] = system: trypsin; settings: cited from earlier work
# [7] = system: SARS-CoV; settings: mouse, in vivo; cited from earlier work
# Sequence of Recombinant Human TMPRSS2 (O15393 106-492): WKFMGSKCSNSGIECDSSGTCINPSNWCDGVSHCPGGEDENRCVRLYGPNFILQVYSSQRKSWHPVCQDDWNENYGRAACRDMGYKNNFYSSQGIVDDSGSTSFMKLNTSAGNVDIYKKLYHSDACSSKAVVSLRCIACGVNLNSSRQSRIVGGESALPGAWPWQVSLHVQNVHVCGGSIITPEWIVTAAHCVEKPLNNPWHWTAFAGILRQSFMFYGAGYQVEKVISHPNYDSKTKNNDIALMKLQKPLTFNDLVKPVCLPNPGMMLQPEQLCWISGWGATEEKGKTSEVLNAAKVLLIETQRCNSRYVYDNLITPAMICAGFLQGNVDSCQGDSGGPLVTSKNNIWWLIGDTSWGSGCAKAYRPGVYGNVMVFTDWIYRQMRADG
structure (smiles),measurement,setting,value
N=C(N)Nc1ccc(C(=O)O)cc1 [4-guanidinobenzoic acid],inhibition of prostasin,[1],do not inhibit
N=C(N)c1ccc2cc(O)ccc2c1 [6-amidino-2-naphthol],inhibition of prostasin,[1],do not inhibit
Cc1cc(=O)oc2cc(NC(=O)[C@H](CCCNC(=N)N)NC(=O)[C@H](C)NC(=O)[C@H](CCC(N)=O)NC(=O)OC(C)(C)C)ccc12 [Boc-Gln-Ala-Arg-AMC] (Boc-Gln-Ala-Arg-{AMC}),released AMC,"[2]; 60 min, peptide 10 μM, TMPRSS2 1 μM, Tris-HCl pH8",27%
"N=C(N)Nc1ccc(C(=O)Oc2ccc(CC(=O)O)cc2)cc1 [FOY-251, 4-(4-guanidinobenzoyloxy)phenylacetic acid]",mean terminal half-life,[3],60 min
Nc1c(Br)cc(Br)cc1CN[C@H]1CC[C@H](O)CC1 [ambroxol],TMPRSS2 inhibition,"[2]; 40 μM, data not shown",did not show any TMPRSS2 inhibition
CN(Cc1cc(Br)cc(Br)c1N)C1CCCCC1 [bromhexine],inhibition of TMPRSS2,"[2]; dose–response, listed as Bromhexine hydrochloride",no inhibition
same,IC50,[4],0.75 µM
same,inhibition of pseudotyped particle entry,[5],lack of inhibiting SARS-CoV-2-S-mediated pseudotyped particle entry
CN(C)C(=O)COC(=O)Cc1ccc(OC(=O)c2ccc(NC(=N)N)cc2)cc1 [camostat],IC50,[6],~0.05 µM
same,t1/2 of hydrolysis in plasma,[3]; plasma,< 1 min
same,SARS-CoV pathogenesis,[7],mitigated SARS-CoV pathogenesis
N=C(N)c1ccc2cc(OC(=O)c3ccc(N=C(N)N)cc3)ccc2c1 [nafamostat],plasma half-life (t1/2),[3]; IV infusion,about 23 min
